According to US11141496B2, “Use of berberine or derivative thereof in preparing myocardial perfusion imaging agent” (WEST CHINA HOSPITAL, SICHUAN UNIVERSITY, priority 2017, dated 2021):

Tests used:
rat cardiomyocytes H9C2 = test: [^18F]HX-01 uptake in H9C2 cells, with and without CCCP (γ counter); format: cell-based
Procedure: As described in method 1.4.4, the suspension of rat cardiomyocytes H9C2, NIH3T3 cells and SD neonatal rat primary cardiomyocytes was adjusted to the concentration of 20×10^4/ml, inoculated in a six-well plate, with 2 ml for each well (containing 4×10^5 cells), and the experimental group and CCCP inhibition group were included, The plate was cultured at 37° C. in 5% CO2 under saturated humidity for 24 h. After the cells adhered, 30 minutes before addition of [^18F]HX-01, the DMEM high-glucose medium in the Petri dish was aspirated and discarded. DMEM high-glucose medium containing CCCP (0.5 μM) was firstly added at 2 ml/well to the cell culture dish in CCCP inhibition group, while an equal volume of DMEM high-glucose medium without CCCP was added to the cell culture dish in the experimental groups, and the dish was incubated at 37° C. in 5% CO2 under saturated humidity for 30 min. Then, 100 μl solution of [^18F]HX-01 dissolved in saline was added to each well at a dose of 2.5 μCi. The plate was incubated at 37° C. in 5% CO2 under saturation humidity. […] After digestion with 0.25% trypsin, all cells were collected in the radioimmunotubes, and the radioactivity counts of the liquid and cells in the wells were measured with a γ counter, and the data were recorded. […]

[1] = test system: SD neonatal rat primary cardiomyocytes; test: [^18F]HX-01 uptake in SD neonatal rat primary cardiomyocytes, with and without CCCP (γ counter); format: cell-based
Procedure: (§1) As described in method 1.4.4, the suspension of rat cardiomyocytes H9C2, NIH3T3 cells and SD neonatal rat primary cardiomyocytes was adjusted to the concentration of 20×10^4/ml, inoculated in a six-well plate, with 2 ml for each well (containing 4×10^5 cells), and the experimental group and CCCP inhibition group were included, The plate was cultured at 37° C. in 5% CO2 under saturated humidity for 24 h. After the cells adhered, 30 minutes before addition of [^18F]HX-01, the DMEM high-glucose medium in the Petri dish was aspirated and discarded. DMEM high-glucose medium containing CCCP (0.5 μM) was firstly added at 2 ml/well to the cell culture dish in CCCP inhibition group, while an equal volume of DMEM high-glucose medium without CCCP was added to the cell culture dish in the experimental groups, and the dish was incubated at 37° C. in 5% CO2 under saturated humidity for 30 min. Then, 100 μl solution of [^18F]HX-01 dissolved in saline was added to each well at a dose of 2.5 μCi. The plate was incubated at 37° C. in 5% CO2 under saturation humidity. After incubation for 5 min, 10 min, 30 min, 60 min and 120 min, the liquid in the well was collected, and rinsed 3 times with PBS, and all the rinse liquid was collected in the radioimmunotubes. After digestion with 0.25% trypsin, all cells were collected in the radioimmunotubes, and the radioactivity counts of the liquid and cells in the wells were measured with a γ counter, and the data were recorded. Three replicate holes were set for each time point.

mouse fibroblasts NIH3T3 = test: [^18F]HX-01 uptake in NIH3T3 cells, with and without CCCP (γ counter); format: cell-based
Procedure: as §1

[2] = Competitive inhibition test of [^18F]HX-01 and non-radioactive standard [^19F]HX-01 (PET); format: in vivo, New Zealand white rabbit; conditions: [^19F]HX-01 1 nmol/kg i.v. 30 min before tracer
Procedure: After anesthesia and fixation, the male New Zealand white rabbits were set as their own control (n=3). On the first day, 2 ml saline was injected into the ear marginal vein of the rabbits. Then, the tracer [^18F]HX-01 was injected, and the dosage was 0.5 mci/kg, and PET scanning was performed immediately as described in 1.4.2. On the second day, non-radioactive standard [^19F]HX-01 was injected through ear edge vein, and the dose of standard substance was 1 nmol/kg, that was dissolved in 2 ml normal saline. 30 min After injection of non-radioactive standard [^19F]HX-01, the tracer [^18F]HX-01 was injected, and the injection doe was 0.5 mCi/kg. After the injection, PET dynamic scanning was performed as described in 1.4.2. […] Using Compassview 5.0 to analyze and process the data, the brain, heart, liver, lung, kidney, bone and muscle of the region of interest (ROI) were drawn on the horizontal axis, and SUVmax was recorded.

[3] = rabbit, in vivo
[4] = SD rat myocardial infarction model, 350 μCi/rat, up to 120 min
[5] = test system: mitochondria of SD neonatal rat primary cardiomyocytes; test: [^19F]HX-01 localization with red mitochondrial probe M7513 in primary cardiomyocytes; format: cell-based; conditions: 4 μM, 10 min, cardiomyocytes and surrounding mixed cells
Procedure: The suspension of primary myocardial cells of SD suckling mice was adjusted to the concentration of 20×10^4/ml, inoculated in a six-well plate, with 2 ml for each well, and then incubated at 37° C. in 5% CO2 under saturated humidity for 24 h. After adherence, the DMEM high glucose medium in each well was aspirated and discarded, and DMEM high glucose medium containing different concentrations of [^19F]HX-01 (6.25, 12.5, 25, 50, 100, 150, and 200 μM) was firstly added, with 2 ml for each well, and each concentration has three replicate wells. After incubation at 37° C. in 5% CO2 under saturated humidity for 1 h, the liquid in each well was aspirated and removed. […] After the wells were washed three times with PBS, the cells were finally observed under a confocal fluorescence microscope with an excitation wavelength of 488 nm.
In order to further clarify the localization characteristics of [^19F]HX-01 in the subcellular organelles of SD rat primary cardiomyocytes, after addition of above different concentrations of [^19F]HX-01 and incubation for 1 h, the medium was discarded, and each well was rinsed with PBS three times. Each well was added the medium containing mitochondrial specific probe with red fluorescence (Mito Tracker Red (M7513), Thermo fisher) and incubated for another 10 min, the medium was removed, and each well was rinsed with PBS three times. […]

SMILES | uptake percentage (peak value) (rat cardiomyocytes H9C2; 120 min, 2.5 μCi per well) | uptake percentage, control group vs CCCP inhibition group (rat cardiomyocytes H9C2; CCCP 0.5 μM 30 min before tracer) | uptake percentage ([1]; 30 min) | uptake percentage (peak value) ([1]; 120 min) | intake percentage, normal group vs CCCP inhibition group ([1]; CCCP 0.5 μM, p>0.05) | uptake percentage (mouse fibroblasts NIH3T3; 5 min) | uptake percentage (mouse fibroblasts NIH3T3; 120 min) | uptake, normal group vs CCCP inhibition group (mouse fibroblasts NIH3T3; CCCP 0.5 μM, p>0.05) | kidney uptake (SUVmax), inhibition group vs control group [2] | liver uptake (SUVmax), inhibition group vs control group [2] | myocardial uptake (SUVmax), inhibition group vs control group ([2]; P<0.001) | lung, bone, muscle and brain uptake (SUVmax), inhibition group vs control group ([2]; P>0.05) | SUVmax ratio of heart/lung [3] | SUVmax ratio of heart/muscle [3] | uptake in other tissues such as brain, lung, muscle and bone [3] | Micro PET image of anterior wall of left ventricle near apical area (infarction) [4] | distribution of red fluorescence of the probe [5]
COc1c(OCCC[18F])ccc2cc3[n+](cc12)CCc1cc2c(cc1-3)OCO2.[Cl-] [[^18F]HX-01] | 2.89%±0.11% | didn't show significant difference in the uptake percentage | 2.08%±0.13% | 2.41%±0.03% | no significant difference in the intake percentage | 0.78±0.06 | 0.91±0.01 | did not show a significant difference | no statistical significance between the two groups | no statistical significance between the inhibition group and the control group | SUVmax value was obviously reduced | not statistically significant | greater than 10 | greater than 10 | extremely low | showed a fixed radioactive defect | 
ClCc1ccc(C2=c3cc4c5c(c3Oc3c2cc2c6c3CCCN6CCC2)CCC[N+]=5CCC4)cc1.[Cl-] [M7513] |  |  |  |  |  |  |  |  |  |  |  |  |  |  |  |  | appeared in the mitochondria of all cells in a granular distribution
